The values that follow come from US20230117324A1, “OXAZINE MONOACYLGLYCEROL LIPASE (MAGL) INHIBITORS” (Hoffmann-La Roche Inc., priority 2018, published 2023).

For orientation: IC50 means the concentration at which inhibition is half-maximal.

This assay has as its target T1, MAGL (Homo sapiens, UniProt Q99685).
T1 sequence (Q99685 1-303): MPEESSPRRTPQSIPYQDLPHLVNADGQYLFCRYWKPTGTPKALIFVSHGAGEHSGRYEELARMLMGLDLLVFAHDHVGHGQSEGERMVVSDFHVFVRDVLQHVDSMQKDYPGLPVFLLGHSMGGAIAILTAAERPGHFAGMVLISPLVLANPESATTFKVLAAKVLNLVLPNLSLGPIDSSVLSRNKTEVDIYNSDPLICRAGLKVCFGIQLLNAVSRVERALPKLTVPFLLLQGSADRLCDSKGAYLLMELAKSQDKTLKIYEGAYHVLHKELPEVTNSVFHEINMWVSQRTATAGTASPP
Briefly: MAGL inhibition, 2-AG assay (hydrolysis of 2-arachidonoylglycerol, arachidonic acid by mass spectrometry). The class given is biochemical. The note with it: 2-AG assay (footnote [b]). The method, then:
Alternatively, compounds were profiled for MAGL inhibitory activity by determining the enzymatic activity by following the hydrolysis of the natural substrate 2-arachidonoylglycerol (2-AG) resulting in arachidonic acid, which can be followed by mass spectrometry. This assay is hereinafter abbreviated “2-AG assay”.
The 2-AG assay was carried out in 384 well assay plates (PP, Greiner Cat #784201) in a total volume of 20 μL. Compound dilutions were made in 100% DMSO (VWR Chemicals 23500.297) in a polypropylene plate in 3-fold dilution steps to give a final concentration range in the assay from 12.5 μM to […]. 0.25 μL compound dilutions (100% DMSO) were added to 9 μL MAGL in assay buffer (50 mM TRIS (GIBCO, 15567-027), 1 mM EDTA (Fluka, 03690-100 mL), 0.01% (v/v) Tween. After shaking, the plate was incubated for 15 min at RT. To start the reaction, 10 μL 2-arachidonoylglycerol in assay buffer was added. The final concentrations in the assay was […] and 8 μM 2-arachidonoylglyerol. After shaking and 30 min incubation at RT, the reaction was quenched by the addition of 40 μL of ACN containing 4 μM of d8-arachidonic acid. The amount of arachidonic acid was traced by an online SPE system (Agilent Rapidfire) coupled to a triple quadrupole mass spectrometer (Agilent 6460). A C18 SPE cartridge (G9205A) was used in an ACN/water liquid setup. The mass spectrometer was operated in negative electrospray mode following the mass transitions 303.1→259.1 for arachidonic acid and 311.1→267.0 for d8-arachidonic acid. The activity of the compounds was calculated based on the ratio of intensities [arachidonic acid/d8-arachidonic acid].
`O=C1CO[C@H]2CCN(C(=O)N3CCC(C(c4ccc(F)cc4)c4ccc(OCCF)cc4)CC3)C[C@H]2N1` (single isomer, unassigned) [Example 109, (4aR,8aS)-6-(4-((S or R)-(4-(2-Fluoroethoxy)phenyl)(4-fluorophenyl)methyl)piperidine-1-carbonyl)hexahydro-2H-pyrido[4,3-b][1,4]oxazin-3(4H)-one] came in with an IC50 of 0.4 nM.

As for `CC(OC1CN(C(=O)N2CC[C@@H]3OCC(=O)N[C@@H]3C2)C1)c1ccc(C(F)(F)F)cc1` (single isomer, unassigned) [Example 114, (4aR,8aS)-6-(3-(1-(R or S)-(4-(Trifluoromethyl)phenyl)ethoxy)azetidine-1-carbonyl)hexahydro-2H-pyrido[4,3-b][1,4]oxazin-3(4H)-one], it took 49 nM to reach half-maximal inhibition (IC50).

In the case of `CC(OC1CN(C(=O)N2CC[C@@H]3OCC(=O)N[C@@H]3C2)C1)c1ccc(C(F)(F)F)cc1` (single isomer, unassigned) [Example 115, (4aR,8aS)-6-(3-(1-(S or R)-4-(Trifluoromethyl)phenyl)ethoxy)azetidine-1-carbonyl)hexahydro-2H-pyrido[4,3-b][1,4]oxazin-3(4H)-one], half-maximal inhibition (IC50) was put at 79 nM.

As for `CC(OC1CN(C(=O)N2CC[C@@H]3OCC(=O)N[C@@H]3C2)C1)c1ccc(F)cc1Cl` (single isomer, unassigned) [Example 116, (4aR,8aS)-6-[3-(S or R)-]1-(2-Chloro-4-fluoro-phenyl)ethoxy]azetidine-1-carbonyl]-4,4a,5,7,8,8a-hexahydropyrido[4,3-b][1,4]oxazin-3-one], the IC50 turned out to be 92 nM.

In the case of `CC(OC1CN(C(=O)N2CC[C@@H]3OCC(=O)N[C@@H]3C2)C1)c1ccc(F)cc1Cl` (single isomer, unassigned) [Example 117, (4aR,8aS)-6-[3-(R or S)-[1-(2-Chloro-4-fluoro-phenyl)ethoxy]azetidine-1-carbonyl]-4,4a,5,7,8,8a-hexahydropyrido[4,3-b][1,4]oxazin-3-one], the IC50 was found to be 30 nM. This IC50 is about 3.1-fold lower than that of the compound before.

With `COc1ccc(C(c2ccccn2)C2CCN(C(=O)N3CC[C@@H]4OCC(=O)N[C@@H]4C3)CC2)cc1OC` (single isomer, unassigned) [Example 118, (4aR,8aS)-6-[4-[(R or S)-(3,4-dimethoxyphenyl)-(2-pyridyl)methyl]piperidine-1-carbonyl]-4,4a,5,7,8,8a-hexahydropyrido[4,3-b][1,4]oxazin-3-one], it took 25 nM to reach half-maximal inhibition (IC50).

`COc1ccc(C(c2ccccn2)C2CCN(C(=O)N3CC[C@@H]4OCC(=O)N[C@@H]4C3)CC2)cc1OC` (single isomer, unassigned) [Example 119, (4aR,8aS)-6-[4-[(S or R)-(3,4-dimethoxyphenyl)-(2-pyridyl)methyl]piperidine-1-carbonyl]-4,4a,5,7,8,8a-hexahydropyrido[4,3-b][1,4]oxazin-3-one] registered an IC50 of 17 nM. The IC50 values of the last two compounds are within 1.5-fold of each other.

With `COc1ccc(C(c2cccnc2)C2CCN(C(=O)N3CC[C@@H]4OCC(=O)N[C@@H]4C3)CC2)cc1OC` (single isomer, unassigned) [Example 135, (4aR,8aS)-6-[4-[(R or S)-(3,4-Dimethoxyphenyl)-(3-pyridyl)methyl]piperidine-1-carbonyl]-4,4a,5,7,8,8a-hexahydropyrido[4,3-b][1,4]oxazin-3-one], the midpoint of inhibition, the IC50, lay at 7 nM.

On to `COc1ccc(C(c2cccnc2)C2CCN(C(=O)N3CC[C@@H]4OCC(=O)N[C@@H]4C3)CC2)cc1OC` (single isomer, unassigned) [Example 136, (4aR,8aS)-6-[4-[(S or R)-(3,4-dimethoxyphenyl)-(3-pyridyl)methyl]piperidine-1-carbonyl]-4,4a,5,7,8,8a-hexahydropyrido[4,3-b][1,4]oxazin-3-one], for which the IC50 is 14 nM.

As for `COc1ccc(C(c2ccncc2)C2CCN(C(=O)N3CC[C@@H]4OCC(=O)N[C@@H]4C3)CC2)cc1OC` (single isomer, unassigned) [Example 149, (4aR,8aS)-6-[4-[(R or S)-(3,4-Dimethoxyphenyl)-(4-pyridyl)methyl]piperidine-1-carbonyl]-4,4a,5,7,8,8a-hexahydropyrido[4,3-b][1,4]oxazin-3-one], the IC50 is 51 nM.

As for `COc1ccc(C(c2ccncc2)C2CCN(C(=O)N3CC[C@@H]4OCC(=O)N[C@@H]4C3)CC2)cc1OC` (single isomer, unassigned) [Example 150, (4aR,8aS)-6-[4-[(S or R)-(3,4-Dimethoxyphenyl)-(4-pyridyl)methyl]piperidine-1-carbonyl]-4,4a,5,7,8,8a-hexahydropyrido[4,3-b][1,4]oxazin-3-one], the IC50 stood at 8 nM.

Regarding `CC(OC1CN(c2ccc(C3CN(C(=O)N4CC[C@@H]5OCC(=O)N[C@@H]5C4)C3)cc2)C1)C(F)(F)F` (single isomer, unassigned) [Example 160, (4aR,8aS)-6-[3-[4-[3-[(1S or 1R)-2,2,2-Trifluoro-1-methyl-ethoxy]azetidin-1-yl]phenyl]azetidine-1-carbonyl]-4,4a,5,7,8,8a-hexahydropyrido[4,3-b][1,4]oxazin-3-one], the midpoint of inhibition, the IC50, lay at 1 nM.

In turn, `CC(OC1CN(c2ccc(C3CN(C(=O)N4CC[C@@H]5OCC(=O)N[C@@H]5C4)C3)cc2)C1)C(F)(F)F` (single isomer, unassigned) [Example 161, (4aR,8aS)-6-[3-[4-[3-[(1R or 1S)-2,2,2-Trifluoro-1-methyl-ethoxy]azetidin-1-yl]phenyl]azetidine-1-carbonyl]-4,4a,5,7,8,8a-hexahydropyrido[4,3-b][1,4]oxazin-3-one] returned an IC50 of 4 nM.

Turning to `CS(=O)(=O)c1cccc(C(c2cccnc2)C2CCN(C(=O)N3CC[C@@H]4OCC(=O)N[C@@H]4C3)CC2)c1` (single isomer, unassigned) [Example 175, (4aR,8aS)-6-[4-[(R or S)-(3-methylsulfonylphenyl)-(3-pyridyl)methyl]piperidine-1-carbonyl]-4,4a,5,7,8,8a-hexahydropyrido[4,3-b][1,4]oxazin-3-one], the IC50 turned out to be 115 nM.

With `CS(=O)(=O)c1cccc(C(c2cccnc2)C2CCN(C(=O)N3CC[C@@H]4OCC(=O)N[C@@H]4C3)CC2)c1` (single isomer, unassigned) [Example 176, (4aR,8aS)-6-[4-[(R or S)-(3-methylsulfonylphenyl)-(3-pyridyl)methyl]piperidine-1-carbonyl]-4,4a,5,7,8,8a-hexahydropyrido[4,3-b][1,4]oxazin-3-one], the IC50 turned out to be 170 nM.

In turn, `CS(=O)(=O)c1cccc(C(c2ccncc2)C2CCN(C(=O)N3CC[C@@H]4OCC(=O)N[C@@H]4C3)CC2)c1` (single isomer, unassigned) [Example 177, (4aR,8aS)-6-[4-[(R or S)-(3-methylsulfonylphenyl)-(4-pyridyl)methyl]piperidine-1-carbonyl]-4,4a,5,7,8,8a-hexahydropyrido[4,3-b][1,4]oxazin-3-one] yielded an IC50 of 428 nM.

As to `CS(=O)(=O)c1cccc(C(c2ccncc2)C2CCN(C(=O)N3CC[C@@H]4OCC(=O)N[C@@H]4C3)CC2)c1` (single isomer, unassigned) [Example 178, (4aR,8aS)-6-[4-[(S or R)-(3-methylsulfonylphenyl)-(4-pyridyl)methyl]piperidine-1-carbonyl]-4,4a,5,7,8,8a-hexahydropyrido[4,3-b][1,4]oxazin-3-one], the IC50 turned out to be 131 nM.

For `CS(=O)(=O)c1cccc(C(c2ccccn2)C2CCN(C(=O)N3CC[C@@H]4OCC(=O)N[C@@H]4C3)CC2)c1` (single isomer, unassigned) [Example 189, (4aR,8aS)-6-[4-[(R or S)-(3-methylsulfonylphenyl)-(2-pyridyl)methyl]piperidine-1-carbonyl]-4,4a,5,7,8,8a-hexahydropyrido[4,3-b][1,4]oxazin-3-one], the IC50 is 68 nM.

The compound `CS(=O)(=O)c1cccc(C(c2ccccn2)C2CCN(C(=O)N3CC[C@@H]4OCC(=O)N[C@@H]4C3)CC2)c1` (single isomer, unassigned) [Example 190, (4aR,8aS)-6-[4-[(S or R)-(3-methylsulfonylphenyl)-(2-pyridyl)methyl]piperidine-1-carbonyl]-4,4a,5,7,8,8a-hexahydropyrido[4,3-b][1,4]oxazin-3-one] showed an IC50 of 261 nM.

On to `O=C1CO[C@H]2CCN(C(=O)N3CC(c4ccc(N5CCCC5C(F)(F)F)cc4)C3)C[C@H]2N1` (single isomer, unassigned) [Example 194], for which 0.1 nM corresponded to half-maximal inhibition (IC50).

Compound `O=C1CO[C@H]2CCN(C(=O)N3CC(c4ccc(N5CCCC5C(F)(F)F)cc4)C3)C[C@H]2N1` (single isomer, unassigned) [Example 195] yielded an IC50 of 0.4 nM. This IC50 lies about 4-fold higher than the previous one.
